Data taken from publication PMC11395566, “Novel Copper (II) Complexes with Fluorine-Containing Reduced Schiff Base Ligands Showing Marked Cytotoxicity in the HepG2 Cancer Cell Line” (International Journal of Molecular Sciences, 2024).
Several values for one entry are separate records, joined by “and”; a condition that tells them apart may be missing. Equal values may be shown once.

Legend:
Jack bean urease = Jack bean urease (Canavalia ensiformis, UniProt P07374); conditions: read-out: Urease inhibition IC50 ± SD, 15 min pre-incubation
Description: The urease inhibition activity of complexes was determined using the modified method reported by [48]. The assay mixture, containing 75 μL of Jack bean urease and 75 μL of the tested compounds with various concentrations dissolved in DMSO, was pre-incubated for 15 min on a 96-well assay. Afterwards, 75 μL of phosphate buffer at pH 6.8 (containing phenol red 0.18 mM) and urea (400 mM) were added and incubated at room temperature. We used microplate reader (560 nm) to measure the reaction time required for enough ammonium carbonate to form to raise the pH of the phosphate buffer from 6.8 to 7.7. The end-point of the reaction was determined by the color change of the phenol red indicator. Acetohydroxamic acid was used as a reference.

[1] = test system: HepG2 hepatocellular carcinoma cells; assay: Cytotoxicity, MTT assay; type: cell-based, human; conditions: for IC50: HepG2, 24 h incubation, MTT
Description: The cytotoxic activity of the compounds L11–L14 and CuL11–CuL14 was evaluated in hepatocellular carcinoma HepG2 cells using the MTT assay. This colorimetric assay measures the reduction of the yellow tetrazolium salt 3-(4,5-dimethylthiazol-2-yl)-2,5-diphenyltetrazolium bromide (MTT) to purple formazan crystals by metabolically active cells.
HepG2 cells were seeded in 96-well plates at 70% confluency and pre-cultivated for 24 h before experiment in RPMI 1640 medium (Biosera, Cholet, France) with 10% fetal bovine serum, 1000 U·mL^−1 penicillin, and […] streptomycin, at 37 °C, 5% CO2 (maximum passage number 23).
HepG2 cells were incubated for 24 h with different concentrations (2–250 µM) of the tested compounds. The stock solutions of the compounds were freshly prepared in DMSO (Sigma-Aldrich, Burlington, MA, USA). Cells treated only with the RPMI 1640 medium served as a negative control, medium and DMSO served as a solvent control, and cells treated with cisplatin solution (Accord Healthcare, Harrow, UK) (2–250 µM) served as a positive control. After treatment, HepG2 cells were incubated for 4 h with MTT (Sigma Aldrich) solution (1mg/mL in PBS and complete RPMI medium). Then, the MTT solution was removed, and the formazan crystals were dissolved in DMSO for 30 min. The absorbance intensity was measured using an Epoch Spectrophotometer (BioTek, Winooski, VT, USA) at 570 nm. The experiments were performed in triplicate and cell cytotoxicity was expressed as a percentage relative to the untreated cells. Unexposed cells were used as a control and considered as having 100% cell viability. The viability of cells was calculated using the following formula:Viable cells (%) = A (treated cells)/A (control cells) × 100
The IC50 values were calculated using a four-parameter logistic regression model.

[2] = test system: T1, bovine serum albumin (BSA); assay: Interaction with BSA by quenching of tryptophane fluorescence; type: binding; conditions: for BSA binding constant K: Scatchard equation; for BSA fluorescence quenching rate constant kq / BSA fluorescence dynamic quenching constant Ksv: Stern–Volmer equation, 30 µM BSA in citrate buffer; for BSA fluorescence dynamic quenching constant Ksv: emission 336 nm
T1 construct: Bovine serum albumin (BSA) was chosen over human serum albumin (HSA) as the model protein target; purchased Sigma-Aldrich
Description: The interaction of all prepared copper complexes with BSA was studied by quenching the BSA fluorescence. BSA was dissolved in citrate buffer at the initial concentration of 30 µM. The quenching of the emission intensity of BSA tryptophane residues at 336 nm was monitored using the tested complexes (1 mM solution in DMSO) as quenchers with gradually increasing concentrations. The fluorescence emission spectra were recorded in the range of 300–420 nm. The wavelength of the excitation radiation was 280 nm. Measured data were used to study the interaction of a quencher with serum albumins using the Stern–Volmer (Equation (1)) and Scatchard (Equation (2)) equations, obtaining the Stern–Volmer constant KSV (M^−1), BSA quenching constant kq (M^−1 s^−1), binding constants KBSA (M^−1), and values of the number of binding sites n on albumin [45]. (1) I0/I=1+kqτ0 [Q]=1+KSV [Q] (2) ΔI/I0/[Q]=nKBSA−KBSAΔI/I0 where I0 = initial tryptophane fluorescence intensity of BSA, I = tryptophane fluorescence intensity of BSA after the addition of the complex, kq = quenching rate constant of BSA, KSV = dynamic quenching constant, τ0 = the average lifetime of BSA without the quencher, and [Q] = concentration of the quencher. KBSA is the bovine serum albumin binding constant and n is the number of binding sides per albumin.

calf thymus DNA (ct-DNA) = assay: Quenching of the fluorescence of EB-DNA adduct (ethidium bromide displacement); type: binding; conditions: for EB-DNA dynamic quenching constant Ksv / EB-DNA fluorescence quenching rate constant kq: Stern–Volmer equation; for ΔI/I0, quenching of EB-DNA fluorescence: complex 0 to 2 × 10^−4 M
Description: A stock solution of ct-DNA was prepared by dissolving 6 mg of ct-DNA in 5 mL of citrate buffer. The ability of the compounds to displace EB from its EB-DNA conjugate was investigated by fluorescence emission spectroscopy. The EB-DNA conjugate was prepared by adding 20 µM EB and 26 µM ct-DNA to citrate buffer. The measurements were performed by the gradual addition of the complex solution in DMSO (1 mM) to the EB-DNA conjugate solution and observing the changes in the fluorescence spectra. The spectra were recorded in the range of 550–700 nm and the excitation wavelength was set to 515 nm. The Stern–Volmer constant KSV was used to evaluate the quenching efficiency of the complexes according to the Stern–Volmer equation (Equation (1)).

[3] = test system: S. aureus CNCTC Mau 29/58; assay: Antimicrobial activity, broth dilution method; type: cell-based, Staphylococcus aureus; conditions: 24 h, 37 °C
Description: (§1) The antimicrobial activities of the synthesized copper (II) complexes were evaluated against E. coli CNCTC 377/79 (Gram-negative bacterium), S. aureus CNCTC Mau 29/58 (Gram-positive bacterium), and the yeast C. albicans CCM 8186. Bacterial strains were obtained from the Czech National Collection of Type Cultures (National Institute of Public Health, Prague, Czech Republic) and the yeast was purchased from the Czech Collection of Microorganisms (Masaryk University, Brno, Czech Republic). Bacteria were grown aerobically in nutrient broth (IMUNA PHARM, Šarišské Michaľany, Slovakia) and the yeast in BD Difco Sabouraud dextrose broth (Becton, Dickinson and Company, Franklin Lakes, NJ, USA) for 18 h at 37 °C or 48 h at 24 °C, respectively. Cultures were then maintained at 4 °C on appropriate solid medium: Endo agar (Oxoid Ltd., Basingstoke, UK) for E. coli, blood agar (Biomark Laboratories, Pune, India) for S. aureus, and BD Sabouraud dextrose agar (Becton, Dickinson and Company, Franklin Lakes, NJ, USA) for C. albicans. Working cultures were prepared by the incubation of a single colony of each microorganism in NB (bacteria) or SDB (yeast) for 18 h at 37 °C or 48 h at 24 °C, respectively. A microbial suspension was prepared in saline solution (0.85% NaCl) according to McFarland standard No 0.5 using a Lambda 35 UV/VIS Spectrophotometer (PerkinElmer Inc., Shelton, CT, USA) to obtain a turbidity (concentration) of ca 1.5 × 10^8 cfu/cm^3. After the dilution in the appropriate liquid medium (NB for bacteria and SDB for yeast), a working turbidity of 1.5 × 10^7 cfu/cm^3 was prepared.
(§2) Antimicrobial activity was determined using the broth dilution method as described in [7]. Stock solutions with initial concentrations of approx. 45 mM for ligands and 27 mM for copper complexes were prepared in DMSO immediately before use. For comparison, ciprofloxacine was used as a standard compound. Working test ligands and copper complexes were prepared by the two-fold serial dilution of stock solutions in sterile doubly concentrated NB or SDB to a final volume 100 mm^3 within the 96-well microplates. Freshly prepared inoculum (5 mm^3) of the tested microorganism was added to each appropriate well (bacteria into the plates with NB, C. albicans into the plates with SDB). The final turbidity of each microorganism in each well was ca 7.5 × 10^5 cfu/cm^3. […] Each concentration was assayed in triplicate. […]

E. coli CNCTC 377/79 = assay: Antimicrobial activity, broth dilution method; type: cell-based, Escherichia coli; conditions: 24 h, 37 °C
Description: as §1, §2

C. albicans CCM 8186 = assay: Antimicrobial activity, broth dilution method; type: cell-based, Candida albicans; conditions: 24 h, 24 °C
Description: as §1, §2

Sequence of Jack bean urease (P07374 whole entry, looked up): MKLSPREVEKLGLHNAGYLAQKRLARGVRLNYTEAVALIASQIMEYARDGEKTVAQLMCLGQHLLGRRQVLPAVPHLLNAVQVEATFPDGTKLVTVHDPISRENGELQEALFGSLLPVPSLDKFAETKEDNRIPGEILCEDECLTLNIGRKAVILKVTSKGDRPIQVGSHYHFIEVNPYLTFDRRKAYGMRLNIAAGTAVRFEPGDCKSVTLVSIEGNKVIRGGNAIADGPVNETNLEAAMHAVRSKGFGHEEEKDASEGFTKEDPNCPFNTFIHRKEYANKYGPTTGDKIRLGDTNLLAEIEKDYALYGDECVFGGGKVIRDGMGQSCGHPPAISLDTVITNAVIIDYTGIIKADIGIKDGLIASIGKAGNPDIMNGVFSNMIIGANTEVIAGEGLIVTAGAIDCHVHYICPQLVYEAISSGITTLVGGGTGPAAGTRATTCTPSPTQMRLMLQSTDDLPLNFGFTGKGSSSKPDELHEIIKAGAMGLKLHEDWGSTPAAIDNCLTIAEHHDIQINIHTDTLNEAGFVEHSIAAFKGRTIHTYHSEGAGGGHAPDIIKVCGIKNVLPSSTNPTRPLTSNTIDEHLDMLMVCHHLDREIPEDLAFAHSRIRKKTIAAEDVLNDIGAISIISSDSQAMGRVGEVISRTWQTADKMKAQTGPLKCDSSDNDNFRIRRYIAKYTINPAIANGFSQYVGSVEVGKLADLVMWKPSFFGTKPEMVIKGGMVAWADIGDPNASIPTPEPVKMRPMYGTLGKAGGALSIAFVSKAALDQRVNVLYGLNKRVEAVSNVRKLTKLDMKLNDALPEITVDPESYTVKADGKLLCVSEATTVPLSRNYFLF

## CC(=O)NO [acetohydroxamic acid]
Jack bean urease
  IC50: 185 µM

## N.N.[Cl][Pt][Cl] [cisplatin, reference compound]
[1]
  IC50: 337 ± 6.7 µM

## Dichloro[(±)-trans-N,N′-bis-(3,5-bis-trifluoromethylbenzyl)-cyclohexane-1,2-diamine]copper (II) [Cu-L14]
[2]
  BSA binding constant K: 5.13 (±0.50) × 10^3 M^−1
  BSA fluorescence quenching rate constant kq: 6.39 (±0.19) × 10^11 M^−1s^−1
  BSA fluorescence dynamic quenching constant Ksv: 6.39 (±0.19) × 10^3 M^−1
Calf thymus DNA (ct-DNA)
  EB-DNA dynamic quenching constant Ksv: 3.50 (±0.09) M^−1 × 10^3
  EB-DNA fluorescence quenching rate constant kq: 1.52 (±0.04) M^−1 s^−1 × 10^11
  ΔI/I0, quenching of EB-DNA fluorescence: 60.7%
[1]
  IC50: 189 ± 7.1 µM
[3]
  MIC S. aureus: 213.2 µM
E. coli CNCTC 377/79
  MIC E. coli: 213.2 µM
C. albicans CCM 8186
  MIC C. albicans: 1705.6 µM

## Dichloro[(±)-trans-N,N′-bis-(3,5-difluorobenzyl)-cyclohexane-1,2-diamine]copper (II) [Cu-L13]
[2]
  BSA binding constant K: 4.70 (±0.32) × 10^3 M^−1
  BSA fluorescence quenching rate constant kq: 8.46 × 10^11 M^−1s^−1 and 8.46 (±0.26) × 10^11 M^−1s^−1
  BSA fluorescence dynamic quenching constant Ksv: 8.46 (±0.26) × 10^3 M^−1
Calf thymus DNA (ct-DNA)
  EB-DNA dynamic quenching constant Ksv: 3.51 (±0.08) M^−1 × 10^3
  EB-DNA fluorescence quenching rate constant kq: 1.53 (±0.03) M^−1 s^−1 × 10^11
  ΔI/I0, quenching of EB-DNA fluorescence: 60.3%
[1]
  IC50: 64.4 ± 3.2 µM
[3]
  MIC S. aureus: 424.5 µM
E. coli CNCTC 377/79
  MIC E. coli: 212.3 µM
C. albicans CCM 8186
  MIC C. albicans: 1698.1 µM

## Dichloro[(±)-trans-N,N′-bis-(4-fluorobenzyl)-cyclohexane-1,2-diamine]copper (II) [Cu-L11]
[2]
  BSA binding constant K: 5.99 (±0.44) × 10^3 M^−1
  BSA fluorescence quenching rate constant kq: 3.88e+11 M⁻¹ s⁻¹
  BSA fluorescence dynamic quenching constant Ksv: 3.90 (±0.08) × 10^3 M^−1
Calf thymus DNA (ct-DNA)
  EB-DNA fluorescence quenching constant (kq): 1.48e+11 M⁻¹ s⁻¹
  EB-DNA dynamic quenching constant Ksv: 3.40 (±0.08) M^−1 × 10^3
  EB-DNA fluorescence quenching rate constant kq: 1.48 (±0.04) M^−1 s^−1 × 10^11
  ΔI/I0, quenching of EB-DNA fluorescence: 61.3%
[1]
  IC50: 61.3 ± 3.4 µM
[3]
  MIC S. aureus: 217.3 µM
E. coli CNCTC 377/79
  MIC E. coli: 217.3 µM
C. albicans CCM 8186
  MIC C. albicans: 1738.1 µM

## Dichloro[(±)-trans-N,N′-bis-(4-trifluoromethylbenzyl)-cyclohexane-1,2-diamine]copper (II) [Cu-L12]
[2]
  BSA binding constant K: 8.59 (±0.64) × 10^3 M^−1
  BSA fluorescence quenching rate constant kq: 5.62 (±0.20) × 10^11 M^−1s^−1
  BSA fluorescence dynamic quenching constant Ksv: 5.62 (±0.20) × 10^3 M^−1
Calf thymus DNA (ct-DNA)
  EB-DNA dynamic quenching constant Ksv: 3.58 (±0.09) M^−1 × 10^3
  EB-DNA fluorescence quenching rate constant kq: 1.56 (±0.04) M^−1 s^−1 × 10^11
  ΔI/I0, quenching of EB-DNA fluorescence: 59.7%
[1]
  IC50: 28.7 ± 2 µM
[1]; HepG2, at a 50 µM concentration
  cell survival: 9.40%
[3]
  MIC S. aureus: 26.7 µM
E. coli CNCTC 377/79
  MIC E. coli: 26.7 µM
C. albicans CCM 8186
  MIC C. albicans: 855.3 µM
